Earlier results as cited in publication PMC12238723, “Phase I Clinical Trial of CVL218, a Novel PARP1/2 Inhibitor, in Patients with Advanced Solid Tumors” (MedComm, 2025).

Design: method as in PMID 36283983
Settings: cited from earlier work

CNCc1ccc(-c2cc3cc(F)cc(C(N)=O)c3o2)cc1.Cl [CVL218]
blood–brain barrier crossing: readily crosses the blood–brain barrier
